Laboratory results: US9062028B2, “Bicyclic nitrogen containing heteroaryl TGR5 receptor modulators” (Bristol-Myers Squibb Company, priority 2011, dated 2015)
Counter-ions that a name gives are not always drawn.

Biological target: T1, recombinant human TGR5 (Homo sapiens, UniProt Q8TDU6)
T1 construct: expressed in transfected cells
T1 sequence (Q8TDU6 1-330): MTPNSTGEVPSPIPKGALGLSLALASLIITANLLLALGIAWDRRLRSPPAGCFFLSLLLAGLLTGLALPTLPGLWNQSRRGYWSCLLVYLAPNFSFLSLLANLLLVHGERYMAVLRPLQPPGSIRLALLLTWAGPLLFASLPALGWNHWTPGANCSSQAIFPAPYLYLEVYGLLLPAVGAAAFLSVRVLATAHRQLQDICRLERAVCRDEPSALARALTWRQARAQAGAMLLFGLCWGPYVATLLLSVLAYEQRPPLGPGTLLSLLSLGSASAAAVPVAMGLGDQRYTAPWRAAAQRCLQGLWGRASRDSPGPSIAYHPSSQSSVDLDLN
Test: cAMP assay (cAMP accumulation, HTRF) in CHOK1 cells stably expressing TGR5
Type: cell-based
Conditions: CHOK1 cells stably expressing human TGR5, 30 minutes at RT, 1% DMSO
Description: The in vitro modulation of recombinant human TGR5 was determined as follows.
A human TGR5 expression construct of human TGR5 was integrated into the genome of a CHOK1 cell line (Invitrogen). Once a stable CHOK1 cell line was generated, the cells were incubated for 5-10 minutes in culture medium consisting of F-12 (Invitrogen#11765-047) supplemented with 10% fetal bovine serum.
On the day of the cAMP accumulation assay, cells stably expressing the […] TGR5 construct were centrifuged at 1000 rpm for 5 minutes. The medium was aspirated and the cells were resuspended in 5 mL of assay buffer (phosphate-buffered saline with Ca^2+ and Mg^2+, Invitrogen#14040). The cells were counted using 1:2 dilution and then adjusted to 0.4-0.5×10^6 cells/mL in assay buffer, if necessary. Isobutylmethylxanthine (IBMX, Sigma#I5879) was added via a 1:5000 dilution to make a 0.1 mM final concentration and then 10 μL of the media were transferred to each well of a 384 well poly-D-lysine coated solid white plate (BD #35-6661) pre-dotted with 100 nL of with the desired concentration of compound added from a concentrated stock dissolved in dimethyl sulfoxide (DMSO) to give a final concentration of 1% DMSO in the assay. The plates were covered and incubated for 30 minutes at RT. cAMP accumulation was measured using the CisBio homogeneous time resolved fluorescence (HTRF) assay kit (#62AM2PEC) following the manufacturer's protocol. Briefly, 5 μl each of the cAMP-HTRF fluorescence detection reagents were added to each well, and the samples were incubated for at least one hour at room temperature. Fluorescence was excited at 320 nm and measured at 665 and 620 nm using the Envision instrument (Perkin Elmer), the fluorescence ratio of 665/620 was calculated and converted to nanomolar concentrations of cAMP in each well by interpolation from a cAMP standard curve. The concentration-response curves and EC50 values were calculated with a four parameter logistic curve fit equation utilizing Excel/XLfit software (Microsoft and IDBS). The EC50 value was calculated as the concentration of agonist which increased the cAMP concentration to a value halfway between the baseline and the maximum.

Molecule | EC50 [nM]
Cc1cccc(OCCCC(=O)N2CCCc3c(-c4cccc(COC(=O)NCC[C@H](O)C(=O)O)c4)cccc32)c1C [Example 273, (S)-4-((3-(1-(4-(2,3-Dimethylphenoxy)butanoyl)-1,2,3,4-tetrahydroquinolin-5-yl)benzyloxy)carbonylamino)-2-hydroxybutanoic acid] | 646
(R)-5-tert-Butyl 1-methyl 2-(4- chloro-3-((4-((1aR,7bS)-3-((2- (3-chloro-2-methylphenoxy) ethoxy)carbonyl)-1a,2,3,7b- tetrahydro-1H-cyclopropa[c] quinolin-7-yl)-1H-pyrazol-1- yl)methyl)benzamido) pentanedioate [Example 669] | 1340
Cc1cccc(OCCCC(=O)N2CCCc3c(-c4cccc(COC(=O)NCCC(=O)O)c4)cccc32)c1C [Example 43, 3-((3-(1-(4-(2,3-Dimethylphenoxy)butanoyl)-1,2,3,4-tetrahydroquinolin-5-yl)benzyloxy)carbonylamino)propanoic acid] | 611
Cc1cccc(OCCCC(=O)N2CC3CC3c3c(-c4cnn(Cc5cc(C(=O)O)ccc5Cl)c4)cccc32)c1C (stereo not shown) [Example 69H, 4-Chloro-3-((4-(3-(4-(2,3-dimethylphenoxy)butanoyl)-1a,2,3,7b-tetrahydro-1H-cyclopropa[c]quinolin-7-yl)-1H-pyrazol-1-yl)methyl)benzoic acid] | 52
Cc1cccc(OCCCC(=O)N2CCCc3c(-c4csc(COC(=O)NCCC(=O)O)n4)cccc32)c1C [Example 46, 3-(((4-(1-(4-(2,3-Dimethylphenoxy)butanoyl)-1,2,3,4-tetrahydroquinolin-5-yl)thiazol-2-yl)methoxy)carbonylamino)propanoic acid] | 1920
Cc1cccc(OCCCC(=O)N2CCCc3c(-c4cccc(COC(=O)N[C@@H](C)CC(=O)O)c4)cccc32)c1C [Example 302, (S)-3-((3-(1-(4-(2,3-Dimethylphenoxy)butanoyl)-l,2,3,4-tetrahydroquinolin-5-yl)benzyloxy)carbonylamino) butanoic acid] | 593
Cc1c(Cl)cccc1OCCOC(=O)N1C[C@@H]2C[C@@H]2c2c(-c3cnn(Cc4cccc(NC(=O)NCS(=O)(=O)O)c4)c3)cccc21 [Example 527, (3-(3-((4-((1aR,7bS)-3-((2-(3-Chloro-2-methyl-phenoxy)ethoxy)carbonyl)-1a,2,3,7b-tetrahydro-1H-cyclopropa[c]quinolin-7-yl)-1H-pyrazol-1-yl)methyl)phenyl)ureido) methanesulfonic acid] | 184
Cc1c(Cl)cccc1OCCOC(=O)N1C[C@@H]2C[C@@H]2c2c(-c3cnn(Cc4cccc(C(C)(C)O)c4)c3)cccc21 [Example 434, (1aR,7bS)-2-(3-Chloro-2-methylphenoxy)ethyl 7-(1-(3-(2-hydroxypropan-2-yl)benzyl)-1H-pyrazol-4-yl)-1a,2-dihydro-1H-cyclopropa [c]quinoline-3(7bH)-carboxylate] | 183
Cc1cccc(OCCCC(=O)N2CCSc3c(-c4cnn(Cc5cccc(C(=O)NCCO)c5)c4)cccc32)c1C [Example 600, 3-((4-(4-(4-(2,3-Dimethylphenoxy)butanoyl)-3,4-dihydro-2H-benzo[b][1,4]thiazin-8-yl)-1H-pyrazol-1-yl)methyl)-N-(2-hydroxyethyl) benzamide] | 42
O=C(O)c1cccc(Cn2cc(-c3cccc4c3C3CC3CN4C(=O)OCCOc3c(F)cccc3F)cn2)c1 (stereo not shown) [Example 32A, 3-((4-(3-((2-(2,6-Difluorophenoxy)ethoxy)carbonyl)-1a,2,3,7b-tetrahydro-1H-cyclopropa[c]quinolin-7-yl)-1H-pyrazol-1-yl)methyl)benzoic acid] | 3400
Cc1cccc(OCCCC(=O)N2CCSc3c(-c4cnn(Cc5c(F)cc(C(=O)NCS(=O)(=O)O)cc5Cl)c4)cccc32)c1C [Example 578, (3-Chloro-4-((4-(4-(4-(2,3-dimethylphenoxy)butanoyl)-3,4-dihydro-2H-benzo[b][1,4]thiazin-8-yl)-1H-pyrazol-1-yl)methyl)-5-fluorobenzamido) methanesulfonic acid] | 45

Now from value to molecule:

EC50 [nM] | Molecule
197 | Cc1cccc(OCCCC(=O)N2CCCc3c(-c4cnn(Cc5cccc(-c6nnn(CC(=O)O)n6)c5)c4)cccc32)c1C [Example 430, 2-(5-(3-((4-(1-(4-(2,3-Dimethylphenoxy)butanoyl)-1,2,3,4-tetrahydroquinolin-5-yl)-1H-pyrazol-1-yl)methyl)phenyl)-2H-tetrazol-2-yl) acetic acid]
192 | Cc1c(Cl)cccc1OCCCC(=O)N1CCCc2c(-c3cnn(Cc4cccc(NC(=O)N[C@H](CCC(=O)O)C(=O)O)c4)c3)cccc21 [Example 534, (R)-2-(3-(3-((4-(1-(4-(3-Chloro-2-methylphenoxy)butanoyl)-1,2,3,4-tetra-hydroquinolin-5-yl)-1H-pyrazol-1-yl)methyl)phenyl)ureido) pentanedioic acid]
49 | Cc1c(Cl)cccc1OCCOC(=O)N1C[C@@H]2C[C@@H]2c2c(-c3cnn(Cc4cc(C(=O)NC(CNS(C)(=O)=O)C(=O)O)ccc4Cl)c3)cccc21 (stereo partly drawn) [Example 685, 2-(4-Chloro-3-((4-((1aR,7bS)-3-((2-(3-chloro-2-methylphenoxy)ethoxy)carbonyl)-1a,2,3,7b-tetrahydro-1H-cyclopropa[c]quinolin-7-yl)-1H-pyrazol-1-yl)methyl)benzamido)-3-(methylsulfonamido)propanoic acid]
1520 | Cc1c(Cl)cccc1OCCCC(=O)N1CCCOc2c(-c3cnn(Cc4ccc(C(=O)N[C@@H](CC(=O)O)C(=O)O)cc4)c3)cccc21 [Example 767, (S)-2-(4-((4-(5-(4-(3-Chloro-2-methylphenoxy)butanoyl)-2,3,4,5-tetrahydrobenzo[b][1,4]oxazepin-9-yl)-1H-pyrazol-1-yl)methyl)benzamido)succinic acid]
188 | Cc1c(Cl)cccc1OCCCC(=O)N1CCCOc2c(-c3cnn(Cc4ccc(C(=O)NCS(=O)(=O)O)cc4F)c3)cccc21 [Example 719, (4-((4-(5-(4-(3-Chloro-2-methylphenoxy)butanoyl)-2,3,4,5-tetrahydrobenzo[b][1,4]oxazepin-9-yl)-1H-pyrazol-1-yl)methyl)-3-fluorobenzamido)methanesulfonic acid]
42 | Cc1cccc(OCCCC(=O)N2C[C@@H]3C[C@@H]3c3c(-c4cnn(Cc5cccc(C(=O)NCC(=O)O)c5)c4)cccc32)c1C [Example 878, 2-(3-((4-((1aR,7bS)-3-(4-(2,3-Dimethylphenoxy)butanoyl)-1a,2,3,7b-tetrahydro-1H-cyclopropa[c]quinolin-7-yl)-1H-pyrazol-1-yl)methyl)benzamido)acetic acid]
1730 | Cc1cccc(OCCCC(=O)N2CCOc3c(-c4cnn(Cc5cccc(S(=O)(=O)N[C@@H](CCC[N+](C)(C)C)C(=O)O)c5)c4)cccc32)c1C [Example 505, (S)-4-Carboxy-4-(3-((4-(4-(4-(2,3-dimethylphenoxy)butanoyl)-3,4-dihydro-2H-benzo [b][1,4]oxazin-8-yl)-1H-pyrazol-1-yl)methyl)phenyl-sulfonamido)-N,N, N-trimethylbutan-1-aminium, TFA salt]
1360 | Cc1cccc(OCCCC(=O)N2CCCc3c(-c4cnn(Cc5cccc(C(=O)N6CCC(C(=O)O)C6)c5)c4)cccc32)c1C (stereo not shown) [Example 859, 1-(3-((4-(1-(4-(2,3-Dimethylphenoxy)butanoyl)-1,2,3,4-tetrahydroquinolin-5-yl)-1H-pyrazol-1-yl)methyl)benzoyl)pyrrolidine-3-carboxylic acid]
